Assays:
PC-3 = assay: MTT in vitro antiproliferative assay, PC-3; format: cell-based; conditions: Homo sapiens, PC-3, MTT; for IC50: 48 h, 50% cell death, read-out: IC50; for GI50 / IC (TGI): 48 h drug exposure; for GI50: read-out: GI50; for IC (TGI): read-out: TGI
Text: (§1) The in vitro antiproliferative activities of the novel triazolo[3,4-b]thiadiazole derivatives were estimated in ten well-established human cancer cell lines including three ovarian (SKOV-3, UWB 1.289, and UWB 1.289+BRCA1), five colorectal adenocarcinoma (DLD-1, HT-29, LS174T, LoVo, and SW403), and two prostate cancer cell lines (PC-3 and DU-145). All cancer cell lines were obtained from the American Type Culture Collection (ATCC) and cultivated in different culture media according to the instructions. The required growth mediums were supplemented with 10% fetal bovine serum and 1% streptomycin/penicillin. All cancer cell lines were cultured as monolayers and maintained at 37 °C, 5% CO2 in humidified air.
(§2) Stock solutions of all tested compounds were prepared by dissolving the required amount of substances in the DMSO solvent to reach the desired concentration of 15 mM.
(§3) To evaluate the in vitro antiproliferative activity of the triazolo[3,4-b]thiadiazole derivatives, 3-(4,5-dimethylthiazol-2-yl)-2,5-diphenyltetrazolium bromide (MTT) assay was assessed. According to the protocol, cells were firstly seeded into a 96-well plate at a density of 8 × 10^3 cells and grown for 24 h at 37 °C, 5% CO2 in humidified air. Subsequently, cells were treated with the tested compounds in a specific range of drug concentrations (1–100 μΜ). Following 48 h of drug exposure, the culture media were discarded and replaced with 100 μL of fresh medium. Afterwards, 50 μL of dissolved MTT in phosphate-buffered saline (PBS) solution (5 mg/mL) were added in each well and cells were incubated for 3 h at 37 °C, 5% CO2 in humidified air. Incubation time was followed by MTT discard and the addition of 100 μL of DMSO solvent so that the formazan crystals could be dissolved. The absorbance of the converted dye was immediately measured at a wavelength of 540 nm on an ELISA reader (VersaMax Microplate Reader, Orleans, CA, USA).
(§4) The in vitro anticancer effect of a tested compound on cell viability was determined by three dose–response parameters termed GI50, TGI, and IC50. More specifically, the GI50 value indicates the required concentration of the compound that impels 50% cell growth inhibition, the TGI value corresponds to the concentration that induces 100% cell growth inhibition, and the IC50 value is the concentration that causes 50% cell death. The two parameters GI50 and TGI represent the cytostatic activity, whereas IC50 reflects the cytotoxic effect of a drug. To estimate the three parameters, nine absorbance measurements were required including control 24 h (Ct24), control 72 h (Ct72), and the mean of cell survival in all seven drug concentrations (Tt72). The percentage growth inhibition was calculated according to National Cancer Institute’s (NCI) protocol: [(Tt72x) − (Ct24)/(Ct72) − (Ct24)] × 100 for concentrations for which Tt72x > Ct24 and [(Tt72x) − (Ct24)/Ct24] × 100 for concentrations for which Tt72x < Ct24. GI50 was calculated from [(Tt72x) − (Ct24)/(Ct72) − (Ct24)] × 100 = 50, TGI was calculated from [(Tt72x) − (Ct24)/(Ct72) − (Ct24)] × 100 = 0, and IC50 was calculated from [(Tt72x) − (Ct24)/Ct24] × 100 = 50. All the experiments were carried out in triplicate.

SKOV-3 = assay: MTT in vitro antiproliferative assay, SKOV-3; format: cell-based; conditions: Homo sapiens, SK-OV-3, SKOV-3, MTT; for IC50: 48 h, concentration causing 50% cell death, read-out: IC50; for GI50 / IC (TGI): 48 h drug exposure; for GI50: read-out: GI50; for IC (TGI): read-out: TGI
Text: as §1, §2, §3, §4

GI50 (PC-3) | GI50 (SKOV-3) | Structure (SMILES) | IC50 (PC-3) | IC (TGI) (PC-3) | IC50 (SKOV-3) | IC (TGI) (SKOV-3)
25 ± 1.4 µM | 6 ± 0.3 µM | CCN(CC)S(=O)(=O)c1cc(OC)c(OC)cc1Cc1nnc2sc(-c3cccc(Cl)c3)nn12 [Compound 6a, 2-((6-(3-chlorophenyl)-[1,2,4]triazolo[3,4-b][1,3,4]thiadiazol-3-yl)methyl)-N,N-diethyl-4,5-dimethoxybenzenesulfonamide] | > 100 µM | 112 ± 2.5 µM | > 100 µM | 14 ± 2.5 µM
32 ± 0.4 µM | 36 ± 0.1 µM | CCN(CC)S(=O)(=O)c1cc(OC)c(OC)cc1Cc1nnc2sc(-c3ccc(Cl)cc3)nn12 [Compound 6b, 2-((6-(4-chlorophenyl)-[1,2,4]triazolo[3,4-b][1,3,4]thiadiazol-3-yl)methyl)-N,N-diethyl-4,5-dimethoxybenzenesulfonamide] | 104 ± 0.8 µM | 56 ± 0.6 µM | > 100 µM | 60 ± 0.8 µM
90 ± 2 µM | > 100 µM | CCN(CC)S(=O)(=O)c1cc(OC)c(OC)cc1Cc1nnc2sc(-c3ccc(F)cc3)nn12 [Compound 6c, N,N-diethyl-2-((6-(4-fluorophenyl)-[1,2,4]triazolo[3,4-b][1,3,4]thiadiazol-3-yl)methyl)-4,5-dimethoxybenzenesulfonamide] | > 100 µM | > 100 µM | > 100 µM | > 100 µM
50 ± 0.5 µM | 80 ± 0.5 µM | CCN(CC)S(=O)(=O)c1cc(OC)c(OC)cc1Cc1nnc2sc(-c3ccc([N+](=O)[O-])cc3)nn12 [Compound 6d, N,N-diethyl-4,5-dimethoxy-2-((6-(4-nitrophenyl)-[1,2,4]triazolo[3,4-b][1,3,4]thiadiazol-3-yl)methyl)benzenesulfonamide] | > 100 µM | > 100 µM | > 100 µM | > 100 µM
20 ± 0.8 µM | 16 ± 0.8 µM | COc1cc(Cc2nnc3sc(-c4cccc(Cl)c4)nn23)c(S(=O)(=O)N(C(C)C)C(C)C)cc1OC [Compound 7a, 2-((6-(3-chlorophenyl)-[1,2,4]triazolo[3,4-b][1,3,4]thiadiazol-3-yl)methyl)-N,N-diisopropyl-4,5-dimethoxybenzenesulfonamide] | > 100 µM | > 100 µM | > 100 µM | 46 ± 1.5 µM
25 ± 0.5 µM | 80 ± 0.8 µM | COc1cc(Cc2nnc3sc(-c4ccc(F)cc4)nn23)c(S(=O)(=O)N(C(C)C)C(C)C)cc1OC [Compound 7b, 2-((6-(4-fluorophenyl)-[1,2,4]triazolo[3,4-b][1,3,4]thiadiazol-3-yl)methyl)-N,N-diisopropyl-4,5-dimethoxybenzenesulfonamide] | > 100 µM | 80 ± 1 µM | > 100 µM | > 100 µM
23 ± 0.8 µM | 15 ± 1.4 µM | COc1cc(Cc2nnc3sc(-c4ccc([N+](=O)[O-])cc4)nn23)c(S(=O)(=O)N(C(C)C)C(C)C)cc1OC [Compound 7c, N,N-diisopropyl-4,5-dimethoxy-2-((6-(4-nitrophenyl)-[1,2,4]triazolo[3,4-b][1,3,4]thiadiazol-3-yl)methyl)benzenesulfonamide] | > 100 µM | 102 ± 1.2 µM | 66 ± 2.5 µM | 28 ± 2.2 µM
11 ± 1 µM | 84 ± 2 µM | CCN(CC)S(=O)(=O)c1cc(OC)c(OC)cc1Cc1nnc2sc(/C=C/c3ccc(Cl)cc3)nn12 [Compound 9a, (E)-2-((6-(4-chlorostyryl)-[1,2,4]triazolo[3,4-b][1,3,4]thiadiazol-3-yl)methyl)-N,N-diethyl-4,5-dimethoxybenzenesulfonamide] | > 100 µM | > 100 µM | > 100 µM | > 100 µM
42 ± 1 µM | > 100 µM | CCN(CC)S(=O)(=O)c1cc(OC)c(OC)cc1Cc1nnc2sc(/C=C/c3ccc(F)cc3)nn12 [Compound 9b, (E)-N,N-diethyl-2-((6-(4-fluorostyryl)-[1,2,4]triazolo[3,4-b][1,3,4]thiadiazol-3-yl)methyl)-4,5-dimethoxybenzenesulfonamide] | > 100 µM | > 100 µM | > 100 µM | > 100 µM

Source: PMC8066331, “Anticancer Activity of Triazolo-Thiadiazole Derivatives and Inhibition of AKT1 and AKT2 Activation” (Pharmaceutics, 2021)
